We go through two molecules from PMC7096528, “Crystal structure of pathogenic Staphylococcus aureus lipase complex with the anti-obesity drug orlistat” (Scientific Reports, 2020).

Series [1] concerns the target T1, Staphylococcus aureus lipase (SAL, glycerol ester hydrolase) (Staphylococcus aureus, UniProt A0A0U1MWF9).
T1 construct: gene lip; mature form containing 394 amino acid residues (recombinant, His-tagged; residues 4–385 determined in the native structure)
Put plainly: co-crystal structure at […] Å; IC50 from purified-enzyme p-nitrophenyl butyrate hydrolysis assay. The class given is biochemical.

Series [2] deals with the molecule itself. Put plainly: SEC; Superdex 200 Increase 10/300 GL, 10 mg/mL SAL injected at 20 °C, 50 mM Tris-HCl pH 7.5, 0.2 M NaCl, 0.5 ml/min, BSA as standard for calibration. Background: In gel filtration, larger molecules generally elute earlier.

T1 sequence (A0A0U1MWF9 entry or part of it): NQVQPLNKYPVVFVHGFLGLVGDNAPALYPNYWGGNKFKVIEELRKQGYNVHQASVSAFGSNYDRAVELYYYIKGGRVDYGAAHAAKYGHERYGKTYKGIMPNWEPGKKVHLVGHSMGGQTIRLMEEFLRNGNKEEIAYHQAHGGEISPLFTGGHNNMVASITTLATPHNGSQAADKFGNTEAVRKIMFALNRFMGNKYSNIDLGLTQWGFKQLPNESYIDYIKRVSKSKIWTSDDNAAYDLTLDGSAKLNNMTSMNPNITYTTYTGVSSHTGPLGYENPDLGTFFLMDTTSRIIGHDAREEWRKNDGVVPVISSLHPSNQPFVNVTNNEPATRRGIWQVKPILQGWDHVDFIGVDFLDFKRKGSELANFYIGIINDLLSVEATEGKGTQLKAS

Broadly, the IC50 is the concentration that gives 50% inhibition. A higher IC50 goes with a need for much substance. `CCCCCCCCCCC[C@@H](C[C@@H]1OC(=O)[C@H]1CCCCCC)OC(=O)[C@H](CC(C)C)NC=O` [orlistat]: in series [1], half-maximal inhibition (IC50) was put at 2400 nM.

B1: Staphylococcus aureus lipase (SAL), native, mature form (enzyme)
chain: ANQVQPLNKYPVVFVHGFLGLVGDNAPALYPNYWGGNKFKVIEELRKQGYNVHQASVSAFGSNYDRAVELYYYIKGGRVDYGAAHAAKYGHERYGKTYKGIMPNWEPGKKVHLVGHSMGGQTIRLMEEFLRNGNKEEIAYHKAHGGEISPLFTGGHNNMVASITTLATPHNGSQAADKFGNTEAVRKIMFALNRFMGNKYSNIDLGLTQWGFKQLPNESYIDYIKRVSKSKIWTSDDNAAYDLTLDGSAKLNNMTSMNPNITYTTYTGVSSHTGPLGYENPDLGTFFLMATTSRIIGHDAREEWRKNDGVVPVISSLHPSNQPFVNVTNDEPATRRGIWQVKPIIQGWDHVDFIGVDFLDFKRKGAELANFYTGIINDLLRVEATESKGTQLKAS
notes: Staphylococcus aureus lipase (glycerol ester hydrolase), mature form of 394 residues processed from the prepolypeptide of 690 residues; numbers count on: the mature protein; Residues 4-385 are visible in the crystal; The pCold II vector is surmised to add the His tag at the N-terminus; also called SA lipase; glycerol ester hydrolase; source: E. coli, purified (three-step chromatography, …)
One may read the stoichiometry N as a count of units in the complex or per binding partner. Turning to B1, the “stoichiometry N” value in series [2] stood at 2.
